Experimental data published in patent US20200061087A1, “Inhibiting the Fungal Cell-Surface Phospate Transporter PHO84” (Children's Medical Center Corporation, priority 2017, published 2020).

Columns and labels:
[1] = tested on: ROS content of wild type (SC5314) cells; test: DCFDA detectable ROS measurement; format: cell-based, Candida albicans; conditions: wild type cells unexposed to external oxidative stressors; 500 microM foscarnet or 1 mM PAA, 1 hour; FIG. 20C
Protocol: FIGS. 20A-20D depict data showing that TORC1 activity contributes to ROS management and Sod3 expression. FIG. 20A depicts dichlorodihydrofluorescein diacetate (DCFDA) detectable ROS measurement of strains, (1) PHO84/PHO84 containing vector (JKC1594), (2) pho84/pho84 containing vector (JKC1598), (3) PHO84/PHO84 overexpressing GTR1 (JKC1596), (4) pho84/pho84 overexpressing GTR1 (JKC1600). Cells cultured overnight in YPD were diluted into SC medium (Loflo) with vehicle or 8 ng/ml rapamycin for 1 hour, and fluorescence intensity was determined at excitation-485 nm and emission wavelength 528 nm after staining cells with 50 μM DCFDA. p=0.0252 for ratio of pho84−/− with vector and pho84−/− overexpressing GTR1 versus ratio of wild type with vector and wild type overexpressing GTR1; all cells exposed to vehicle. p=0.0014 for ratio of pho84−/− with vector and pho84−/− overexpressing GTR1 versus ratio of wild type with vector and wild type overexpressing GTR1; all cells exposed to rapamycin. p values calculated using Student's t-test. […] In FIG. 20C, wild type (SC5314) cells were exposed to vehicle, 500 microM foscarnet or 1 mM PAA for 1 hour, and fluorescence intensity was determined at excitation-485 nm and emission wavelength 528 nm after staining cells with 50 μM DCFH-DA. p<0.001 for both 500 microM foscarnet versus vehicle and 1 mM PAA versus vehicle. […]

[2] = tested on: C. albicans wild type (SC5314); test: Potentiation of antifungals, growth curves (OD600) in SC with 0.5 mM KH2PO4; format: cell-based, Candida albicans; conditions: 500 μM Fos plus 0.2 μg/ml amphotericin B; 8 mM PAA plus 0.25 μg/ml amphotericin B; 30° C.; FIG. 4C, 10D
Protocol: FIGS. 4A-4D depict data showing that small-molecule inhibition of Pho84 represses TORC1 and hyphal morphogenesis, and potentiates amphotericin B and micafungin antifungal activity. FIG. 4A depicts a Western blot of wild type (wt) (SC5314) cells with (1) vehicle, (2) 100 μM foscarnet (Fos), (3) 200 μM Fos, (4) 400 μM Fos, and strains (5, 7, 9, 11) PHO84+/+(JKC915), (6, 8) pho84−/+ (JKC1583) and (10, 12) pho84−/− (JKC1450), grown in standard SC (7.3 mM Pi) for 60 min, probed for P-S6 and tubulin. […] FIG. 4C depicts Wt (SC5314) exposed to vehicle, 500 μM Fos, 0.2 μg/ml amphotericin B, and amphotericin B plus Fos; OD600 in SC with 0.5 mM KH2PO4 at 30° C. monitored every 15 minutes. FIG. 4D depicts Wt (SC5314) exposed to vehicle, 500 μM Fos, 25 ng/ml micafungin, and micafungin plus Fos; OD600 in SC with 0.5 mM KH2PO4 at 30° C. monitored every 15 minutes.
FIGS. 10A-10D depict data showing that Foscarnet inhibits Pho84 in competition with Pi. Wild type PHO84/PHO84 (+/+, dark blue) (JKC915) and pho84/pho84 null (−/−, light blue) (JKC1450) cells were exposed to 1 and 4 mM PAA (FIG. 10A) or 200 and 400 μM foscarnet (FIG. 10B), and growth in SC medium with 0.22 mM or 11 mM KH2PO4 at 30° C. was monitored automatically every 15 minutes. […] OD600 was monitored automatically every 15 minutes. […]

[3] = tested on: C. albicans wild type PHO84/PHO84 and pho84/pho84 null cells; test: Growth curves in liquid SC medium (OD600) during exposure to Pho84 inhibitors; format: cell-based, Candida albicans; conditions: wild type vs pho84−/− null; 1 and 4 mM PAA or 200 and 400 μM foscarnet; SC with 0.22 or 11 mM KH2PO4, 30° C.; FIG. 10A, B
Protocol: FIGS. 10A-10D depict data showing that Foscarnet inhibits Pho84 in competition with Pi. Wild type PHO84/PHO84 (+/+, dark blue) (JKC915) and pho84/pho84 null (−/−, light blue) (JKC1450) cells were exposed to 1 and 4 mM PAA (FIG. 10A) or 200 and 400 μM foscarnet (FIG. 10B), and growth in SC medium with 0.22 mM or 11 mM KH2PO4 at 30° C. was monitored automatically every 15 minutes. FIGS. 10A and 10B are representative of 3 biological replicates; error bars show SD. FIG. 10C depicts a filamentation assay: in order to maximize reproducibility between replicate experiments, cells of wild type strain SC5314 were suspended in 0.9% NaCl to an OD600 of 0.1; then 3 μl of the suspension was spotted at equidistant points, using a template, around a Spider agar plate containing vehicle or 500 μM foscarnet. Spot edges were imaged to show the length and density of filaments extending from the edge of the spot into the agar medium. Scale bar 1 mm. […] OD600 was monitored automatically every 15 minutes. […]
For cell dilutions spotted onto agar media as previously described (20), saturated overnight cultures were diluted in 5-fold steps from an OD600 of 0.5. […] For growth assays including those during drug exposure, OD600 readings were obtained every 15 min in a plate reader and standard deviations of 3 technical replicates were calculated and graphed in Graphpad Prism. […]

[4] = tested on: TORC1 (Rps6 phosphorylation); test: Western blot for phosphorylated ribosomal protein S6 (P-S6) as readout of TORC1 activity; format: cell-based, Candida albicans; conditions: FIG. 4A
Protocol: FIGS. 4A-4D depict data showing that small-molecule inhibition of Pho84 represses TORC1 and hyphal morphogenesis, and potentiates amphotericin B and micafungin antifungal activity. FIG. 4A depicts a Western blot of wild type (wt) (SC5314) cells with (1) vehicle, (2) 100 μM foscarnet (Fos), (3) 200 μM Fos, (4) 400 μM Fos, and strains (5, 7, 9, 11) PHO84+/+(JKC915), (6, 8) pho84−/+ (JKC1583) and (10, 12) pho84−/− (JKC1450), grown in standard SC (7.3 mM Pi) for 60 min, probed for P-S6 and tubulin. FIG. 4B depicts Wt (SC5314) spotted at equidistant points around RPMI agar (0.22 mM KH2PO4, pH 7) containing vehicle, 8 mM phosphonoacetic acid (PAA), or 500 μM Fos, grown at 37° C., and spot edges imaged. Compare with FIG. 7A. Bar 1 mm. FIG. 4C depicts Wt (SC5314) exposed to vehicle, 500 μM Fos, 0.2 μg/ml amphotericin B, and amphotericin B plus Fos; OD600 in SC with 0.5 mM KH2PO4 at 30° C. monitored every 15 minutes. FIG. 4D depicts Wt (SC5314) exposed to vehicle, 500 μM Fos, 25 ng/ml micafungin, and micafungin plus Fos; OD600 in SC with 0.5 mM KH2PO4 at 30° C. monitored every 15 minutes.
Cell harvesting, lysis, Western blotting and densitometry were performed as described in Chowdhury T & Köhler JR (2015) Ribosomal protein S6 phosphorylation is controlled by TOR and modulated by PKA in Candida albicans. Molecular Microbiology 98(2):384-402. At least three biological replicates were obtained for each experiment shown.

[5] = tested on: C. albicans wild type, pho84−/− null and reintegrant cells; test: Growth in YPD with oxidative stressors (OD600); format: cell-based, Candida albicans; conditions: 25 μM plumbagin, 40 μM menadione, 40 mM H2O2, FIG. 16A
Protocol: FIGS. 16A and 16B depict data showing that resistance to oxidative stressors is decreased, and Hog1 phosphorylation is increased in cells lacking PHO84. In FIG. 16A, overnight cultures were washed with normal saline and diluted to YPD with vehicle, 25 μM plumbagin, 40 μM menadione, and 40 mM H2O2 to OD600 0.1. OD600 was monitored every 15 minutes for strains +/+ (PHO84/PHO84), JKC915; −/− (pho84/pho84), JKC1450 and −/−/+(pho84/pho84::PHO84), JKC1588. FIG. 16B depicts a Western blot of cells incubated in YPD containing 5 mM H2O2 for 5 min, 10 min, 20 min, 30 min and 40 min. The membrane was probed for P-Hog1, total Hog1, and loading controls PSTAIRE and Histone H3. Strains, +/+ (PHO84/PHO84), JKC915; −/− (pho84/pho84), JKC1450 and −/−/+ (pho84/pho84::PHO84), JKC1588. FIGS. 16A and 16B show representatives of at least 3 biological replicates.
For cell dilutions spotted onto agar media as previously described (20), saturated overnight cultures were diluted in 5-fold steps from an OD600 of 0.5. For growth curves in liquid media, saturated overnight cultures in YPD were washed once in 0.9% NaCl and diluted to an OD600 of 0.15 in 150 μl medium in flat bottom 96-well dishes. For growth assays including those during drug exposure, OD600 readings were obtained every 15 min in a plate reader and standard deviations of 3 technical replicates were calculated and graphed in Graphpad Prism. Growth during drug exposure was assayed in SC medium. Vehicle for Pho84 inhibitors PAA (Sigma, 284270) and Fos (Santa Cruz Biotechnology, # SC-253593A) was water and for amphotericin B (Sigma, A9528), DMSO. All panels shown represent at least 3 biological replicates.

[6] = tested on: human peripheral blood derived neutrophils incubated with C. albicans; format: cell-based; conditions: neutrophils pretreated with different concentrations of NAC (up to 10 mM); 90 min, M.O.I. 2; dose-dependent; FIG. 12D
Protocol: To examine whether in fact ROS are responsible for pho84−/− null cells' increased susceptibility to neutrophils' cidal activity, Candida-ingesting neutrophils were treated with the ROS-scavenging compound N-acetyl cysteine (NAC).

Row | Compound | ROS content (DCFDA detectable) [1] | Potentiation of amphotericin B antifungal activity [2] | C. albicans growth inhibition in dependence on Pho84 [3] | Growth inhibition of pho84−/− null mutant compared with wild type [5] | also measured
1 | O=C(O)P(=O)(O)O [Fos, phosphonoformic acid] | increased the ROS content of wild type cells | potentiate activity of the antifungal amphotericin B | inhibit C. albicans growth in dependence on the presence of their target Pho84 |  | Rps6 phosphorylation (P-S6) ([4]; heterozygous pho84−/+ cells (JKC1583)): P-S6 was hypersensitive to Fos; Rps6 phosphorylation (P-S6) ([4]; pho84−/− cells lacking the target (JKC1450)): did not further decrease the P-S6 signal; Rps6 phosphorylation (P-S6) ([4]; wild type (SC5314) cells, 100, 200, 400 μM Fos, SC (7.3 mM Pi), 60 min): inhibited Rps6 phosphorylation (PS6) in a dose-dependent manner
2 | OO [H2O2, hydrogen peroxide] |  |  |  | inhibited growth of the mutant more strongly than that of the wild type | 
3 | CC(=O)N[C@@H](CS)C(=O)O [NAC, N-acetyl cysteine] |  |  |  |  | Hypersensitivity of pho84−/− null cells to neutrophil killing [6]: rescued hypersensitivity of pho84−/− null cells to neutrophil killing
4 | O=C(O)CP(=O)(O)O [PAA, phosphonoacetic acid] | increased the ROS content of wild type cells | potentiate activity of the antifungal amphotericin B | inhibit C. albicans growth in dependence on the presence of their target Pho84 |  | 
5 | CC1=CC(=O)c2ccccc2C1=O [menadione] |  |  |  | inhibited growth of the mutant more strongly than that of the wild type | 
6 | CC1=CC(=O)c2c(O)cccc2C1=O [plumbagin] |  |  |  | inhibited growth of the mutant more strongly than that of the wild type | 
